Results taken from PubChem BioAssay (NCI).
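Cells were grown in 96-well plates and exposed to each compound for 48 hours at five concentrations; endpoints were interpolated linearly between bracketing concentrations, or set to the highest concentration if not reached. The concentration for 50% growth inhibition is given as GI50. TGI: concentration producing complete growth inhibition.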

Tests used:
Test in all cases: NCI tumour cell line growth inhibition, 48 h
[1] = tested on: M14 melanoma
[2] = tested on: OVCAR-8 ovarian
[3] = tested on: HCT-15 colon
[4] = tested on: SNB-19 CNS
[5] = tested on: HCC-2998 colon
[6] = tested on: MDA-MB-231 breast
[7] = tested on: U251 CNS
[8] = tested on: RXF 393 renal
[9] = tested on: UACC-257 melanoma
[10] = tested on: T-47D breast

Compound	GI50 [1] [µM]	TGI [1] [µM]	GI50 [2] [µM]	TGI [2] [µM]	GI50 [3] [µM]	TGI [3] [µM]	GI50 [4] [µM]	TGI [4] [µM]	GI50 [5] [µM]	TGI [5] [µM]	GI50 [6] [µM]	TGI [6] [µM]	GI50 [7] [µM]	TGI [7] [µM]	GI50 [8] [µM]	TGI [8] [µM]	GI50 [9] [µM]	TGI [9] [µM]	GI50 [10] [µM]	TGI [10] [µM]
CCCCCCCCCCCCCCCCN1CC2CCCCC2C1 (stereo not drawn)	2.93	9.22	4.18	17.6	6.79	61.2	7	27.7	2.17	5.44	4.01	14	14.5	> 100	2.3	6.78	12.6	27		
CCc1ccccc1NC(=O)C(=O)CC(=O)c1sc(Nc2ccccc2)nc1C		> 100		> 100		> 100		> 100		> 100				> 100		> 100		> 100		
CN(C)CCNc1c2c(c(NCCN(C)C)c3[nH]ccc13)C(=O)c1ccccc1C2=O	3.68	29.9	0.532	9.21	0.168	3.55	0.93	12.1	0.393	3.28			0.507	15.9	1.5	3.63	4.71	19	2.87	> 21.2
Cc1cc(N(CCC#N)CCC#N)ccc1N=Nc1cccc(C(=O)O)c1		> 100		> 100		> 100				> 100				> 100		> 100		> 100		
COc1ccc(-c2n/c(=C\c3c(O)[nH]c4ccc(OC)cc34)cc3c2=Nc2ccccc2-3)cc1	1.98	3.59					3.88	> 100	2.93	10.1	1.73	4.27					2.07	4.48	11.8	40.5
O=c1/c(=C/c2ccccc2F)sc2nc3ccccc3n12		> 100		> 100		> 100		> 100		> 100				> 100		> 100		> 100		
COc1ccc(-c2nc3sc4c(c3c(=O)[nH]2)CCCCCC4)cc1	1.48	> 33.2	3.9	> 33.2	0.655	> 33.2	4.74	> 33.2	> 33.2	> 33.2	4.04	> 33.2			1.62	10.4	> 33.2	> 33.2		
Cc1ccccc1[P+](Cc1ccccc1)(c1ccccc1)c1ccccc1	2.51	12.6	1.92	13.2	23.5	> 100	2.8	> 100	2.06	23.2	2.06	28	1.99	35.2	4.35	51.8	0.623	4.23		
CC1=C(C)C(=O)c2c(cc3ccccn23)C1=O		28.1		61.1		29.9		28.6		29.9				27.2		27.9				
CC1=C(Oc2ccccc2)C(CCC(=O)O)c2c(O)cc(Cl)c(O)c21 (stereo not drawn)		> 100		> 100		> 100		> 100		> 100				> 100		> 100		> 100		
CCOc1ccc(NC(=O)C(=O)CC(=O)C2=C(C)Nc3ccccc3S2)cc1		> 50		> 50		> 50		> 50		> 50				> 50		> 50		> 50		
COc1cc(OC(C)=O)cc2c(OC(C)=O)ccc(OC(C)=O)c12		> 100		> 100		> 100		> 100						> 100		> 100		> 100		
C1C[OH+]CC[OH+]CCNCC[OH+]CC[OH+]CCN1.N.[Cl-].[Pt+4]	5.31	23.6	17	> 100	20.2	71.6	7.22	62.6	13.5	32.6			7.19	> 100	2.49	12.3	3.19	10.9		
Cc1ccc(N=Nc2c(O)c(C(=O)O)cc3ccccc23)cc1C		> 100		> 100		> 100		> 100		> 100		> 100		> 100		> 100		> 100		
C=CCC[CH2][Sn]([c]1ccccc1)([c]1ccccc1)[c]1ccccc1	1.62	3.09	1.78	3.28	1.52	3.07	1.73	3.31	1.69	3.11			1.65	3.01	1.34	2.66	1.87	3.33		
COC(C(=O)[O][Ge]([CH3])([CH3])[CH3])c1ccccc1 (stereo not drawn)	> 100	> 100	> 100	> 100	> 100	> 100	> 100	> 100	> 100	> 100			> 100	> 100	> 100	> 100	> 100	> 100		
CCOC(=O)COc1ccccc1/C=C1\CCC(CN(C)C)C1=O (stereo not drawn)		22.6		15.1		9.86		20.6		7.98				14.8		7.94		16.3		
Cc1ccc(NC(=O)C(=O)C(C#N)c2ccccc2C)cc1C (stereo not drawn)		> 100		> 100		> 62		> 100		> 82				> 100		> 100		> 100		
